SMILES strings stand for the structures.

The IC50 is the concentration needed to halve the response being measured.

One assay deals with T1, ULK1 (Homo sapiens, UniProt O75385).
T1 construct: purchased Promega V3521
T1 sequence (O75385 1-649 limits assumed): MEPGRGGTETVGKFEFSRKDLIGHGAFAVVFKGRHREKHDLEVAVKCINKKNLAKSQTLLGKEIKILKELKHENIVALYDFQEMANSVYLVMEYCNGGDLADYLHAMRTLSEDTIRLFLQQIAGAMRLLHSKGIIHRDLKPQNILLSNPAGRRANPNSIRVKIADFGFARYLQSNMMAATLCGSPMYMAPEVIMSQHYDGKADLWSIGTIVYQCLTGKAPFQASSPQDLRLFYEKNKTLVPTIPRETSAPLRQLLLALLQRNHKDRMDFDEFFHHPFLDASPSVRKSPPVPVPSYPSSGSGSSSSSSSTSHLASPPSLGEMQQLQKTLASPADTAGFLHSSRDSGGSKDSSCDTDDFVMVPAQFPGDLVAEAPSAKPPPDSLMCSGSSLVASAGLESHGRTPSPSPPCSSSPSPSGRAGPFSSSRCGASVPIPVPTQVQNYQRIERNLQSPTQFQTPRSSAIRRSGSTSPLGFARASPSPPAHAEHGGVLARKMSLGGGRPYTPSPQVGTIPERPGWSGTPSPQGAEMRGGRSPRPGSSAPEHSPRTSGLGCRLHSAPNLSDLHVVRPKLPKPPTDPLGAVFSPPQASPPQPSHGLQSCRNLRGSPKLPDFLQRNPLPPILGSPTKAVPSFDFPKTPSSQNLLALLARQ
Put plainly: Inhibition of ULK1 protein activity (ADP-Glo method). The assay is classed as biochemical. To be noted: ULK1 enzyme, ATP and MBP substrate, 60 min room temperature. As for the experimental part:
In this experiment, the inhibitory effect of a compound on the phosphorylation function of ULK1 was detected by ADP-Glo method. The inhibitory effect of the compound of the present disclosure on the ULK1 target was evaluated based on IC50.
Compound formulation: Using an ECHO (Beckman, ECHO650), the compound was serially diluted 3-fold in DMSO in a 384-well plate (PE, 6007290). A total of 10 concentration points were set, with the maximum concentration of the compound being 10 μM, and 50 nL per well. Positive control wells and negative control wells were added with 50 nL DMSO, respectively.
Reaction process: A 32 nM of ULK1 (Promega, V3521) solution was formulated, and 2.5 μL/well was transferred to the compound test wells and the negative control wells (NC). 2.5 μL/well of 1× Assay buffer was added to the positive control wells (PC). A mixed solution of 100 μM of ATP and 1.86 μM of MBP was formulated, and 2.5 μL/well was transferred to the reaction plate. After centrifugation, the reaction was initiated and incubated at room temperature for 60 min. After the reaction was completed, 5 μL/well of ADP-Glo Reagent (Promega, V9102) was added to the reaction plate. After centrifugation, the reaction was incubated at room temperature for 40 minutes. Finally, 10 μL/well of Kinase Detection Buffer was added, followed by centrifugation and incubation at room temperature for 30 min. The chemiluminescence value was read using Envision (PE, Envision2105).
Assay buffer: a reaction buffer; and Kinase Detection buffer: a detection buffer, both were taken from the ADP-Glodetection kit, purchased from Promega, model V9102. 3. Data analysis
The inhibition ratio of a compound on ULK1 activity was calculated using the following formula:
Inhibition ratio=(sample signal value−negative control signal value)/(positive control signal value−negative control signal value)×100%. The dose-effect curve was fitted using the log(inhibitor) vs. response -Variable slope of the analysis software GraphPad Prism 8, thereby affording the IC50 value of each compound for enzyme activity.
On the technique in general: In ADP-Glo the light output rises with the ADP produced.

Assay [1] relates to ATG13 phosphorylation level in MIA PaCa-2 cells. Kind of assay: Inhibition of ATG13 phosphorylation level in MIA PaCa-2 cells (pATG13 ELISA). The assay is classed as cell-based. To be noted: Homo sapiens, Torin1 100 nM, 24 h incubation, Phospho-Atg13 (ser355). As for the experimental part:
The inhibitory effect of the compound of the present disclosure on ULK1 was evaluated by testing the inhibitory effect of the compound of the present disclosure on ATG13 phosphorylation level in MIA PaCa-2 cells.
MIA PaCa-2 cells (ATCC, CRM-CRL-1420) were cultured in a complete medium, namely, a DMEM medium (Gibco, 11965-092) containing 10% fetal bovine serum (Corning, 35-081-CV), 2.5% horse serum (Gibco, 16050-122) and 1% double antibody (Gibco, 15140-122). The experiments were performed according to the requirements of the kit (Cell Signaling Technology, 17208C).
Cell plating: MIA PaCa-2 at 80% growth confluence were digested, diluted with the complete medium, and added to a 96-well cell culture plate (Costar, 3596) at 20,000 cells per well, with a volume of 90 μL.
Compound incubation: 5 μL of Torin1 and 5 μL of a serially diluted compound were added to each well so that the highest concentration of the compound in the reaction system was 10 μM. 5-fold serial dilution with 8 concentrations was performed, and the final concentration of Torin1 was 100 nM. The DMSO content in the system was 0.1%. The reaction plate was placed in an incubator at 37° C. in 5% CO2, and was incubated for 24 h. 10 μL of Torin1 was added to the negative control wells (NC) to a final concentration of 100 nM, with a DMSO content of 0.1%.
Reaction detection: After the incubation was completed, the cell plate was washed with a pre-cooled DPBS (Corning, 21-031-CVC) to wash away the compound and medium. 50 μL of pre-cooled cell lysis solution was added to each well, incubated on ice for 10 min. The cell plate was centrifuged, and the supernatant was transferred to an ELISA reaction plate. Simultaneously, 50 μL of Phospho-Atg13 (ser355) rabbit detection antibody was added, followed by incubation at room temperature under shaking for 60 min. After the incubation was completed, the reaction plate was washed with a washing solution for 4 times. 100 μL of TMB substrate was added for color development reaction, followed by incubation under shaded conditions with shaking for 15 min. Finally, 100 μL of stop solution was added to each well. The reaction was terminated by shaking for 10 s, and the absorbance value at 450 nm and 560 nm were collected within 10 min using Envision (Perkin Elmer, EnVision 2105).
The inhibition ratio was calculated by subtracting the absorbance value at […] from the absorbance value at 450 nm for each well. The inhibition ratio formula is as follows: inhibition ratio=(sample signal value−negative control signal value)/(positive control signal value -negative control signal value)×100%.
The dose-effect curve was fitted using the log (inhibitor) vs. response -Variable slope of Graphpad Prism8, thereby affording the IC50 value of each compound for inhibiting ATG13 phosphorylation level.
Background: ELISA stands for enzyme-linked immunosorbent assay.

On ULK1, `Cc1ccn(C2CN(c3nc(Nc4ccc(N5CCN(C)CC5)cc4C4CC4)ncc3C(F)(F)F)C2)n1` [Example 2] yielded an IC50 of 0.1 to 1 µM.
For `CN1CCN(c2ccc(Nc3ncc(C(F)(F)F)c(N4CCN(C(=O)C5CCC5)CC4)n3)c(C3CC3)c2)CC1` [Example 3], at ULK1, the IC50 was in the range of 0.1 to 1 µM.
Compound `CN1CCN(c2ccc(Nc3ncc(C(F)(F)F)c(N4CCC(NC(=O)C5CCC5)CC4)n3)c(C3CC3)c2)CC1` [Example 4] came in with an IC50 against ULK1 of 0.1 to 1 µM.
At ULK1, `CN1CCN(c2ccc(Nc3ncc(C(F)(F)F)c(N4CCC(N5CCCC5=O)CC4)n3)c(C3CC3)c2)CC1` [Example 6] came in with an IC50 greater than 1 µM.
Compound `CN1CCN(c2ccc(Nc3ncc(C(F)(F)F)c(NC(=O)C4CCC4)n3)c(C3CC3)c2)CC1` [Example 7] had an IC50 at ULK1 of 0.1 to 1 µM.
On the same count and under the same terms, for `CN1CCN(c2ccc(Nc3ncc(C(F)(F)F)c(N4CCC(N5CCCCC5=O)CC4)n3)c(C3CC3)c2)CC1` [Example 8] the value was greater than 1 µM; for `CN1CCN(c2ccc(Nc3ncc(C(F)(F)F)c(N4CCCN(C(=O)C5CCC5)CC4)n3)c(C3CC3)c2)CC1` [Example 9], 0.1 to 1 µM.
The compound `CN1CCN(c2ccc(Nc3ncc(C(F)(F)F)c(NC4CCN(C)C(=O)C4)n3)c(C3CC3)c2)CC1` (stereo not shown) [Example 10] displayed an IC50 at ULK1 of 0.1 to 1 µM.
Same read-out and setting: under `CN1CCN(c2ccc(Nc3ncc(C(F)(F)F)c(N[C@H]4CCN(C)C4=O)n3)c(C3CC3)c2)CC1` [Example 11] stands 0.1 to 1 µM; under `CN1CCN(c2ccc(Nc3ncc(C(F)(F)F)c(N4CCC(CN5CCCCC5=O)C4)n3)c(C3CC3)c2)CC1` (stereo not shown) [Example 12], 0.1 to 1 µM; under `Cc1ccnn1C1CCN(c2nc(Nc3ccc(N4CCN(C)CC4)cc3C3CC3)ncc2C(F)(F)F)CC1` [Example 13], 0.1 to 1 µM.
With `CN1CCN(c2nc(Nc3cccc(CN4CCOCC4)c3)ncc2C(F)(F)F)CC1=O` [Example 16], at ULK1, the IC50 was greater than 1 µM.
With `CN1CCN(c2ccc(Nc3ncc(C(F)(F)F)c(OC4CCN(C)C(=O)C4)n3)c(C3CC3)c2)CC1` (stereo not shown) [Example 17], the IC50 against ULK1 was less than 0.1 µM.
`CN1CCN(c2ccc(Nc3ncc(C(F)(F)F)c(OC4CCN(C(=O)C5CCC5)CC4)n3)c(C3CC3)c2)CC1` [Example 18]: the IC50 at ULK1 fell in the range of 0.1 to 1 µM.
The same measure, in the same setting: under `CN1CCN(c2nc(Nc3cccc(Nc4ccc(N)cc4)c3)ncc2C(F)(F)F)CC1=O` [Example 21] stands 0.1 to 1 µM; under `CN1CCN(c2nc(Nc3cccc(NC(=O)N4CCCC4)c3)ncc2C(F)(F)F)CC1=O` [Example 22], greater than 1 µM; under `CN1CCC2(CCN(c3nc(Nc4ccc(N5CCOCC5)cc4)ncc3C(F)(F)F)CC2)C1` [Example 23], less than 0.1 µM.
Consider `CN1CCN(c2ccc(Nc3ncc(C(F)(F)F)c(N4CC5(CCN(C)C5)C4)n3)c(C3CC3)c2)CC1` [Example 25], for which the IC50 was 0.1 to 1 µM in assay [1] and less than 0.1 µM on ULK1.
Consider `CN1CCN(c2ccc(Nc3ncc(C(F)(F)F)c(CCNC(=O)C4CCC4)n3)c(C3CC3)c2)CC1` [Example 27], for which, on ULK1, the IC50 is 0.1 to 1 µM.
The same measure, in the same setting: under `CN1CCN(c2ccc(Nc3ncc(C(F)(F)F)c(CCN4CCCCC4=O)n3)c(C3CC3)c2)CC1` [Example 28] stands 0.1 to 1 µM; under `CN1CCC(n2cc(-c3nc(Nc4ccc(N5CCN(C)CC5)cc4C4CC4)ncc3C(F)(F)F)cn2)CC1` [Example 33], less than 0.1 µM.
The compound `CN1CCC(COc2ccc(Nc3ncc(C(F)(F)F)c(OCCCN4CCCCC4=O)n3)c(C3CC3)c2)CC1` [Example 34] displayed an IC50 on ULK1 of 0.1 to 1 µM.
Regarding `CN1CCN(c2ccc(Nc3ncc(C(F)(F)F)c(N4CCC5(CCNC5=O)CC4)n3)c(C3CC3)c2)CC1` [Example 35], the 50% inhibitory concentration (IC50) at ULK1 was less than 0.1 µM.
Compound `CN1CCN(c2ccc(Nc3ncc(C(F)(F)F)c(N4CCC5(CC4)CN(C)C5)n3)c(C3CC3)c2)CC1` [Example 36] returned an IC50 against ULK1 greater than 1 µM.
Compound `CN1CCN(c2ccc(Nc3ncc(C(F)(F)F)c(N4CCC5(CN(C)C5)C4)n3)c(C3CC3)c2)CC1` [Example 38] registered an IC50 on ULK1 of less than 0.1 µM.
In turn, `CN1CCN(c2ccc(Nc3ncc(C(F)(F)F)c(N4C5CCC4C(=O)N(C)C5)n3)c(C3CC3)c2)CC1` (stereo not shown) [Example 39] registered an IC50 against ULK1 of less than 0.1 µM.
`Cc1ccn(C2CCN(c3nc(Nc4ccc(N5CCN(C)CC5)cc4C4CC4)ncc3C(F)(F)F)C2)n1` (stereo not shown) [Example 41]: the IC50 against ULK1 was less than 0.1 µM.
Regarding `CN1CCN(c2ccc(Nc3ncc(C(F)(F)F)c(COCCN4CCCCC4=O)n3)c(C3CC3)c2)CC1` [Example 42], the IC50 against ULK1 is greater than 1 µM.
As to `CC(=O)Nc1ccc(Nc2cccc(Nc3ncc(C(F)(F)F)c(N4CCN(C)C(=O)C4)n3)c2)cc1` [Example 43], the IC50 against ULK1 is greater than 1 µM.
On the same count and under the same terms, under `CN1CCN(c2ccc(Nc3ncc(C(F)(F)F)c(NCCCc4ccccc4C#N)n3)c(C3CC3)c2)CC1` [Example 44] stands less than 0.1 µM; under `CN1CCN(c2ccc(Nc3ncc(C(F)(F)F)c(N4CCN(C5CCCNC5)C(=O)C4)n3)c(C3CC3)c2)CC1` (stereo not shown) [Example 45], 0.1 to 1 µM.
Same read-out and setting: for `CN1CC[C@@H](Oc2ccc(Nc3ncc(C(F)(F)F)c(OCCCN4CCCCC4=O)n3)c(C3CC3)c2)C1` [Example 46] the value was less than 0.1 µM; for `CN1CCN(c2ccc(Nc3ncc(C(F)(F)F)c(OCCCC(=O)N4CCOCC4)n3)c(C3CC3)c2)CC1` [Example 47], less than 0.1 µM.
Same read-out and setting: for `CN1CCN(c2ccc(Nc3ncc(C(F)(F)F)c(N4CC5(CCN(C)CC5)C4)n3)c(C3CC3)c2)CC1` [Example 48] the value was less than 0.1 µM.
`CN1CCN(c2ccc(Nc3ncc(C(F)(F)F)c(N4CC5(CCCN(C)C5)C4)n3)c(C3CC3)c2)CC1` [Example 50]: at ULK1, the IC50 was in the range of 0.1 to 1 µM.
Same read-out and setting: under `CN1CCN(c2ccc(Nc3ncc(C(F)(F)F)c(NC4CCC(N5CCCC5=O)CC4)n3)c(C3CC3)c2)CC1` (stereo not shown) [Example 52] stands less than 0.1 µM.

These data come from patent US20260274819A1, “ULK1 INHIBITOR, PREPARATION METHOD THEREFOR AND USE THEREOF” (DOVETREE MEDICINES UNUS, INC., priority 2023, published 2026).
